Measurements as given in ChEMBL document CHEMBL1144587, “Synthesis and antiviral activity of C-fluoro-branched cyclopropyl nucleosides” (Eur J Med Chem, 2007).
pEC50: −log10 of the molar value.

Assays:
Assay type in all cases: functional, organism-based
[1] = test system: Human immunodeficiency virus 1; test: Antiviral activity against HIV1 in MT4 cells; settings: Human immunodeficiency virus 1, MT4
Human alphaherpesvirus 1 = test: Antiviral activity against HSV1 in CCL81 cells; settings: Human alphaherpesvirus 1, CCL 81
Human alphaherpesvirus 2 = test: Antiviral activity against HSV2 in CCL81 cells; settings: Human alphaherpesvirus 2, CCL 81
Human betaherpesvirus 5 = test: Antiviral activity against HCMV AD169; settings: Human betaherpesvirus 5, AD169

Structure (SMILES) | pEC50 [1] | pEC50 (Human alphaherpesvirus 1) | pEC50 (Human alphaherpesvirus 2) | pEC50 (Human betaherpesvirus 5)
C[C@]1(CO)C[C@]1(F)n1ccc(N)nc1=O (racemic) | < 4.00 | < 4.00 | < 4.00 | < 4.00
C[C@]1(CO)C[C@@]1(F)n1ccc(=O)[nH]c1=O (racemic) | < 4.00 | < 4.00 | < 4.00 | 4.37
Cc1cn([C@@]2(F)C[C@]2(C)CO)c(=O)[nH]c1=O (racemic) | 4.05 | < 4.00 | < 4.00 | 4.29
C[C@]1(CO)C[C@]1(F)n1cnc2c(N)ncnc21 (racemic) | < 4.00 | 4.17 | < 4.00 | 4.15
C[C@]1(CO)C[C@@]1(F)n1cnc2c(N)ncnc21 (racemic) | < 4.00 | 4.06 | < 4.00 | < 4.00
Nc1nc2c(ncn2COC(CO)CO)c(=O)[nH]1 [GANCICLOVIR] |  | 5.82 | 5.82 | 6.00

Continued, values first:

pEC50 [1] | pEC50 (Human alphaherpesvirus 1) | pEC50 (Human alphaherpesvirus 2) | pEC50 (Human betaherpesvirus 5) | Structure (SMILES)
4.46 | < 4.00 | < 4.00 | < 4.00 | Cc1cn([C@]2(F)C[C@]2(C)CO)c(=O)[nH]c1=O (racemic)
4.19 | < 4.00 | < 4.00 | < 4.00 | C[C@]1(CO)C[C@@]1(F)n1ccc(N)nc1=O (racemic)
4.71 | < 4.00 | < 4.00 | 4.97 | C[C@]1(CO)C[C@]1(F)n1ccc(=O)[nH]c1=O (racemic)
9.10 |  |  |  | Cc1cn([C@H]2C[C@H](N=[N+]=[N-])[C@@H](CO)O2)c(=O)[nH]c1=O [ZIDOVUDINE]
